Test results taken from patent publication US5190961A, “Thiourea derivatives and antimicrobial agent and antulcer agent containing the same” (Terumo Kabushiki Kaisha, priority 1990, dated 1993).
Values after ≈ are worked out from the molar mass of the structure shown.

How the values were obtained:
[1] = test system: peptic ulcer induced by water immersion restraint stress; test: Inhibitory action against the peptic ulcer induced by water immersion restraint stress; assay type: in vivo; settings: Rattus norvegicus; SD male rats, 32 mg/kg oral, water immersion restraint stress 23° C., 7 hours; read-out: Inhibitory action against stress peptic ulcer, Percent inhibition of p.u. formation
Experimental: (1) Inhibitory action against the peptic ulcer induced by water immersion restraint stress
(§1) SD male rats (weighing 200-300 g) were fasted for 24 hours before oral administration of a thiourea derivative of the invention at a dose of 32 mg/kg bodyweight. One hour later, the animal was put in a stress cage and loaded with water immersion restraint stress in a water bath at 23° C. Seven hours after loading with the stress, the rate was sacrificed with ether, and the stomach was excised and treated with formalin. Area (mm^2 ) of the lesions developed in the glandular stomach area was then measured. Results were expressed in sum of the lesions per animal which was referred to as peptic ulcer index.
(§2) It was confirmed that the thiourea derivatives of the invention not shown in the table also have a similar antiulcer activity.
Percent inhibition of the peptic ulcer formation (%) as shown in the table was calculated according to the following equation: [formula]

[2] = test system: ethanol peptic ulcer; test: Inhibitory action against ethanol peptic ulcer; assay type: in vivo; settings: Rattus norvegicus; SD male rats, 32 mg/kg oral, 1 hour before ethanol 0.5 ml/100 g; read-out: Inhibitory action against ethanol peptic ulcer, Percent inhibition of p.u. formation
Experimental: (2) Inhibitory action against ethanol peptic ulcer
as §1, with “ethanol” for “the animal”, “orally given” for “put”, “volume of 0.5 ml/100 g bodyweight. One hour after treating” for “stress cage and loaded”, “ethanol,” for “water immersion restraint stress in a water bath at 23° C. Seven hours after loading with”, “rat” for “stress, the rate”, “(mm^2)” for “(mm^2 )”
as §2
Percent inhibition of the peptic ulcer formation (%) as shown in the table was calculated according to the same equation as mentioned above.

[3] = test system: Helicobacter pylori; test: Antimicrobial activity against Helicobacter pylori (MIC); assay type: cell-based, Helicobacter pylori strain NCTC 11916; settings: NCTC11916, strain NCTC 11916, twofold dilution, 37° C., 3-5 days, O2 about 5%
Experimental: (3) Antimicrobial activity against Helicobacter pylori
Antimicrobial activity of the thiourea derivatives according to the invention against Helicobacter pylori (or Campylobacter pylori) was evaluated by employing strain NCTC 11916 as a Helicobacter test organism and determining MIC (minimum inhibitory concentration) for the strain with the thiourea derivative.
The Helicobacter pylori was pre-incubated in a plate medium for 3-5 days. The medium was prepared by dissolving 38 g of a Mueller-Hinton medium (manufactured by Difco) in an appropriate amount of distilled water, sterilizing the solution in an autoclave, adding to the solution 50 ml of a horse hemolysis solution (manufactured by Nippon Seibutu Zairyou Center: Horse defibrinized blood, hemolyzed by a lyophilization treatment) and 2 ml of Skirrow, a Campylobacter selective supplement (manufactured by OXOID) containing vancomycin (5 mg), trimethoprim (2.5 mg) and polymyxin B (1250 IU) per vial (2 ml), and further an appropriate amount of distilled water to a volume of 1L in total and expanding and solidifying the solution on a dish. These antibiotics were contained for inhibition of the growth of microorganism other than Helicobacter pylori. The Helicobacter pylori pre-incubated under slightly aerobic conditions (an O2 concentration of about 5%) at 37° C. for 3-5 days was suspended in a physiological saline solution in a concentration of approximately 10^8 organisms/ml. Approximately 10-20 μl of the suspension was inoculated on a medium for MIC measurement in cross streaks. […] The DMSO solution was formed by the twofold dilution method. As in the pre-incubation, the Helicobacter pylori was cultured under slightly aerobic conditions at 37° C. for 3-5 days. After completion of the culture, growth of the microoranisms on the streaks was visually determined. The minimum concentration of the thiourea derivative in which no growth was observed was taken as MIC.
It was confirmed that the thiourea derivatives of the invention not shown in the table also have a similar antimicrobial activity.

| SMILES | inhibition in vivo at 32 mg/kg [1] | inhibition in vivo at 32 mg/kg [2] | MIC [3] |
| --- | --- | --- | --- |
| COc1cc(NC(=S)NCCCC(=O)NCCCOc2cccc(CN3CCCCC3)c2)cc(OC)c1OC [Example 18, 1-[3-[N-[3-[3-(piperidinomethyl)phenoxy]propyl]carbamoyl]propyl]-3-(3,4,5-trimethoxyphenyl)thiourea] | 60.6% | 83.8% | 6.25 µg/mL (≈ 11.2 µM) |
| O=C(CCCNC(=S)Nc1ccccc1Oc1ccccc1)NCCCOc1cccc(CN2CCCCC2)c1 [Example 17, 1-[3-[N-[3-[3-(piperidinomethyl)phenoxy]propyl]carbamoyl]propyl]-3-(O-phenoxyphenyl)thiourea] | 62.2% | 73.3% | 12.5 µg/mL (≈ 22.3 µM) |
| N#Cc1cccc(NC(=S)NCCCC(=O)NCCCOc2cccc(CN3CCCCC3)c2)c1 [Example 20, 1-[3-[N-[3-[3-(piperidinomethyl)phenoxy]propyl]carbamoyl]propyl]-3-(3-cyanophenyl)thiourea] | 70.2% | 83.5% | 12.5 µg/mL (≈ 25.3 µM) |
| O=C(CCCCCNC(=S)Nc1ccccc1)NCCCOc1cccc(CN2CCCCC2)c1 [Example 28, 1-[5-[N-[3-[3-(piperidinomethyl)phenoxy]propyl]carbamoyl]pentyl]-3-phenylthiourea] | 73.2% | 75.5% | 12.5 µg/mL (≈ 25.2 µM) |
